Measured values taken from patent US20150328280A1, “ALISPORIVR FOR TREATMENT OF HEPATITIS C VIRUS INFECTION” (priority 2011, published 2015).

Assays:
HCV genotype 1 [1] = test: phase 2 study of genotype 1 treatment-naive patients, sustained virologic response; format: in vivo, human; conditions: alisporivir 600 mg BID for one week, then 600 mg QD, 48 week treatment, combined with peg-IFNa2a
From the text: The virological response parameters are: rapid virologic response at treatment week 4 (RVR 4) defined by undetectable serum HCV-RNA at treatment week 4; early virological response (EVR), defined by at least 2 log10 IU/mL reduction in HCV-RNA compared to baseline (partial EVR) or undetectable serum HCV-RNA (complete EVR) at treatment week 12; sustained virological response (SVR24), defined as absence of HCV-RNA from serum by a sensitive Polymerase Chain Reaction (PCR) assay 24 weeks following end of therapy or the HCV RNA is undetectable (by LOD) 24 weeks after end of treatment; End of Treatment Response (ETR): HCV RNA undetectable (by LOD) at treatment end (completed or prematurely discontinued).

HCV genotype 1 [2] = test: study of alisporivir in HCV Genotype 1 non responder patients, decline in HCV RNA; format: in vivo, human; conditions: first week of treatment, with peg-IFNα2a plus RBV
Method: The efficacy of the therapy regimen may be monitored using standard protocols. Treatment may be followed by determinations of HCV in serum and measurement of serum ALT (alanine-aminotransferase) levels. For example, the patients may be assessed for the presence of HCV RNA in their plasma. HCV RNA (IU/mL) can be measured at regular intervals during the treatment, e.g., at Day 1 (pre-dose and 4, 8, and 12 hours post-dose) and pre-dose at Day 2, Day 3, Day 8, Day 15, Day 29, and at Week 12, Week 24, Week 36, Week 48, Week 72 (when applicable), and at follow up. In addition, the HCV strains in the patient can be sequenced and assessed for identification of mutations selecting for resistance.
In addition, study of the use of alisporivir in HCV Genotype 1 non responder patients addressed the utility of a 400 mg BID dose regimen versus the same total daily dose given once daily (800 mg QD) during the first week of treatment, both with peg-IFNα2a plus RBV, and the possible relationships between Cmax, AUC, or Cmin and antiviral effect at the end of that treatment period. In this hard to treat patient population, the 400 mg BID dose provided greater decline in HCV RNA from baseline (−1.41 log10 IU/m1) than the 800 mg QD dose (−0.70 log10 IU/ml). […]

[3] = boceprevir recipients; cited from earlier work

## C/C=C/C[C@@H](C)[C@@H](O)[C@H]1C(=O)N[C@@H](CC)C(=O)N(C)[C@H](C)C(=O)N(CC)[C@@H](C(C)C)C(=O)N[C@@H](C(C)C)C(=O)N(C)[C@@H](CC(C)C)C(=O)N[C@@H](C)C(=O)N[C@H](C)C(=O)N(C)[C@@H](CC(C)C)C(=O)N(C)[C@@H](CC(C)C)C(=O)N(C)[C@@H](C(C)C)C(=O)N1C [alisporivir, Alisporivir]
HCV genotype 1 [1]
  rates of achievement of sustained virologic response (SVR) versus peg-IFNα2a: superior
HCV genotype 1 [2]; 400 mg BID
  decline in HCV RNA from baseline: −1.41 log10 IU/m1
HCV genotype 1 [2]; 800 mg QD
  decline in HCV RNA from baseline: −0.70 log10 IU/ml

## CC(C)(C)NC(=O)N[C@H](C(=O)N1C[C@H]2[C@@H]([C@H]1C(=O)NC(CC1CCC1)C(=O)C(N)=O)C2(C)C)C(C)(C)C (stereo partly shown) [boceprevir]
[3]
  treatment-emergent anemia versus pegylated interferon and ribavirin recipients: significantly higher
